Data reported in patent US20230346827A1 (priority 2020, published 2023).

Columns and labels:
blood coagulation (APTT) = assay: Activated partial thromboplastin time (APTT) in blood of ALS patients after s.c. LMW-DS 1 mg/kg (Example 5); assay type: in vivo, human
Protocol: This was a single-centre, open single-arm study where the safety, tolerability and efficacy of subcutaneous (s.c.) administered LMW-DS was evaluated in patients with ALS. There were 10 planned visits to the clinic: 1 screening visit divided in 2 parts (Visit 1a and Visit 1b), 5 IMP administration visits (Visit 2 to Visit 6) and 3 follow-up visits (Visit 7 to Visit 9). Each individual patient’s study participation was planned to be approximately 4 months, including the screening and follow-up visits.
The active pharmaceutical ingredient of the IMP was a low molecular weight dextran sulfate (LMW-DS), (ILB®, Tikomed AB, Viken, Sweden, WO 2016/076780). LMW-DS was prepared as a solution for s.c. injection and consisted of 20 mg/mL LMW-DS and 9 mg/mL NaCl. Each glass vial contained 10 mL. The dose administered depended on the patient’s body weight at Visit 2, prior to the first LMW-DS administration. LMW-DS was injected s.c. on alternating sides of the abdomen, thigh or the buttock (in that order of priority). Five injections of 1 mg/kg, with 1 week dosing interval, were administered. Changes in activated partial thromboplastin time (APTT) were recorded from blood samples taken at each visit.

[1] = test system: Human trabecular meshwork cells; assay: Fibronectin immunofluorescence in TGFβ2-stimulated trabecular meshwork cells; assay type: cell-based; settings: TGFβ2 1.0 ng/ml + LMW-DS 4.0 µM, 72 hours
Protocol: Human trabecular meshwork cells (TMC-6590; ScienCell Research Laboratories, Carlsbad, CA) were cultured in TMC (6591; ScienCell Research Laboratories) complete medium and maintained at 37° C. in 5% CO2 until reaching 80-90% confluency. Cells were plated at densities of 5000-10000 cells per well in Greiner-Bio Cell 96 Well black Cell Culture Microplates (655090, Sigma) and left to adhere overnight. The following day cells were treated with TGFβ2 (1.0 ng/ml; Preprotech) and/or LMW-DS (4.0 µM; Tikomed AB) under serum free conditions for 72 hrs.
After 72 hrs treatments, cells were fixed using 4% PFA in PBS (28908, Thermo Fisher Scientific) for 10 minutes, washed with PBS and then washed with PBS containing saponin-based permeabilization buffer (00-8333-56, Thermo Fisher Scientific). Cells were then immunostained with anti-human Fibronectin Alexa Fluor® 488 (53-9869-82, Thermo Fisher Scientific) and nuclear stain Hoeschst 33342 (H21492, Thermo Fisher Scientific) in permeabilizing buffer in the dark for 1 hr at room temperature. […] Images were analyzed using the Yokogawa image analysis software.

ALS patients = assay: Serum metabolites (HPLC) in ALS patients before/after five weekly LMW-DS 1.0 mg/kg s.c. (Example 12); assay type: in vivo, human; settings: post- vs pre-treatment
Protocol: After an initial screening visit, patients had five weekly dosing of a single LMW-DS (ILB®, Tikomed AB, Viken, Sweden, WO 2016/076780) injection of 1.0 mg/kg body weight in saline into the subcutaneous fat of the lower abdomen.
Peripheral venous blood samples were been collected from the patients after at least 15 minutes of complete rest, using the standard tourniquet procedure, from the antecubital vein into a single VACUETTE® polypropylene tube containing serum separator and clot activator (Greiner-Bio One GmbH, Kremsmunster, Austria). After 30 minutes at room temperature, blood withdrawals were centrifuged at 1,890 × g for 10 min and the resulting serum samples were stored at -20° C. until analysis.
After defrost, an aliquot of 500 µl of each serum sample was supplemented with 1 ml of HPLC-grade acetonitrile, vortexed for 60 seconds, centrifuged at the maximum speed in a top-bench centrifuge to precipitate proteins. Supernatants were washed with large volumes of HPLC-grade chloroform to remove organic solvent, centrifuged and the upper aqueous phases were transferred in different tubes, clearly labeled to identify the sample and stored at -80° C. until analyzed to determine different water-soluble compounds.
A second aliquot of about 300 µl of each serum sample was light-protected and then processed to extract fat-soluble antioxidants using a method described in detail elsewhere (Lazzarino et al., Single-step preparation of selected biological fluids for the high performance liquid chromatographic analysis of fat-soluble vitamins and antioxidants. J Chromatogr A. 2017; 1527: 43-52.). Briefly, samples were supplemented with 1 ml of HPLC-grade acetonitrile, vigorously vortexed for 60 s and incubated at 37° C. for 1 h in a water bath under agitation, to allow the full extraction of lipid soluble compounds. Samples were then centrifuged at 20,690 × g for 15 min at 4 C to precipitate proteins and the clear supernatants were saved at -80° C. until the HPLC analysis of fat-soluble vitamins and antioxidants.
In deproteinized serum samples, the following water-soluble compounds were separated and quantified by HPLC, according to methods described elsewhere (Tavazzi et al., Simultaneous high performance liquid chromatographic separation of purines, pyrimidines, N-acetylated amino acids, and dicarboxylic acids for the chemical diagnosis of inborn errors of metabolism. Clin Biochem. 2005; 38: 997-1008; Romitelli et al., Comparison of nitrite/nitrate concentration in human plasma and serum samples measured by the enzymatic batch Griess assay, ion-pairing HPLC and ion-trap GC-MS: The importance of a correct removal of proteins in the Griess assay. J Chromatogr B Analyt Technol Biomed Life Sci. 2007; 851: 257-267; Amorini et al., Metabolic profile of amniotic fluid as a biochemical tool to screen for inborn errors of metabolism and fetal anomalies. Mol Cell Biochem. 2012; 359: 205-216): hypoxhantine, xanthine, uric acid, malondialdehyde (MDA), nitrite, nitrate, N-acetylaspartate (NAA), citrulline (CITR), alanine (ALA), and ornithine (ORN).
The following fat-soluble vitamins and antioxidants in deproteinized serum samples were separated and quantified by HPLC according to a method as previously described (Lazzarino et al., Cerebrospinal fluid ATP metabolites in multiple sclerosis. Mult Scler J. 2010; 16: 549-554): α-tocopherol (vitamin E) and γ-tocopherol. In addition to the abovementioned fat-soluble antioxidants and vitamins, also the concentration of total bilirubin was determined in serum samples.
Comparison of the Pre- and Post-treatment subgroups was performed by the two-tailed Student’s t-test for paired samples. The comparison of each subgroup with the group of control healthy subjects was carried out by the two-tailed non-parametric Mann-Whitney U-test for unpaired observations. Differences with p < 0.05 were considered statistically significant.

sodium salt of dextran sulfate [LMW-DS] was tested, and the “APTT relative change from baseline” value (blood coagulation (APTT); 2 hours post-dosing) was “+33.5%”, the “APTT relative change from baseline” value (blood coagulation (APTT); 2.5 hours post-dosing) was “+26.5%” and the “time at which APTT values returned to pre-dose levels” value (blood coagulation (APTT); post dosing) was 6 h. For the same substance, the “fibronectin levels (quantification of fibronectin staining)” value [1] was 1136 ± 155, the “serum ALA” value (ALS patients) was “normalized” and the “serum CITR” value (ALS patients) was “ameliorated”. The “serum MDA” value (ALS patients) was “decreased”, the “serum NAA” value (ALS patients) was “Significantly lower” and the “serum ORN/CITR ratio” value (ALS patients) was “ameliorated”. For the same substance, the serum nitrate (ALS patients) was “decreased”, the “serum nitrite + nitrate” value (ALS patients) was “decreased” and the “serum sum of oxypurines” value (ALS patients) was “decreased”. For the same substance, the serum total bilirubin (ALS patients) was “decreased”, the serum uric acid (ALS patients) was “decreased” and the “serum α-tocopherol” value (ALS patients) was “ameliorated”. For the same substance, the “serum γ-tocopherol” value (ALS patients) was “ameliorated”.
